From article PMC6320956, “O-Aminoalkyl-O-Trimethyl-2,3-Dehydrosilybins: Synthesis and In Vitro Effects Towards Prostate Cancer Cells” (Molecules, 2018)
Where two headings read alike, the source gives them in different places.

Key:
PC-3 cells [1] = experiment: WST-1 cell proliferation assay, PC-3; type: cell-based, human; conditions: for IC50 (Silibinin)/IC50(Derivative) PC-3: fold potency relative to silibinin; for IC50: WST-1, three days of exposure, mean ± SD, n = 3
Description: (§1) The in vitro antiproliferative activities of six 7-O-substituted and 26 3-O-substituted silybin derivatives were evaluated using the WST-1 cell proliferation assay, according to the procedure as described in the Experimental Section in both androgen-sensitive (LNCaP) and androgen-insensitive (PC-3 and DU145) human prostate cancer cell lines. Silibinin and docetaxel were used as a positive control for comparison in the parallel experiments and the IC50 values calculated from the dose-response curves are summarized in Table 1. […] A three-carbon linker in 11 and 29, as well as a five-carbon linker in 31, 37 and 40, are beneficial to the potency.
(§2) All cell lines were initially purchased from American Type Culture Collection (ATCC^TM) (Manassas, VA, USA). The PC-3 and LNCaP prostate cancer cell lines were routinely cultured in RPIM-1640 medium supplemented with 10% FBS and 1% penicillin/streptomycin. The DU145 prostate cancer cells were routinely cultured in Eagle’s Minimum Essential Medium (EMEM) supplemented with 10% FBS and 1% penicillin/streptomycin. Cultures were maintained in a high humidity environment supplemented with 5% carbon dioxide at a temperature of 37 °C.
(§3) PC-3, DU145, or LNCaP cells were plated in 96-well plates at a density of 3,200 per well in 200 µL of culture medium. The cells were then separately treated with silibinin, or synthesized silibinin derivatives, at five different doses for three days, while equal treatment volumes of DMSO (0.25%) were used as the vehicle control. The cells were cultured in a CO2 incubator at 37 °C for three days. A total of 10 µL of the premixed WST-1 cell proliferation reagent (Clontech) was added to each well. After mixing gently for one min on an orbital shaker, the cells were incubated for an additional 3 h at 37 °C. To ensure a homogeneous distribution of color, it is important to mix gently on an orbital shaker for one min. The absorbance of each well was measured using a microplate reader (Synergy HT, BioTek, Winooski, VT, USA) at a wavelength of 430 nm. […] For calculating the IC50 values, a linear proliferative inhibition was made based on at least five dosages for each compound.

DU145 cells [2] = experiment: WST-1 cell proliferation assay, DU145; type: cell-based, human; conditions: for IC50 (Silibinin)/IC50(Derivative) DU145: fold potency relative to silibinin; for IC50: Homo sapiens, DU-145, 72 h, WST-1, three days of exposure, mean ± SD, n = 3
Description: as §1, §2, §3

LNCaP cells [3] = experiment: WST-1 cell proliferation assay, LNCaP; type: cell-based, human; conditions: for IC50 (Silibinin)/IC50(Derivative) LNCaP: fold potency relative to silibinin; for IC50: WST-1, three days of exposure, mean ± SD, n = 3
Description: as §1, §2, §3

PC-3 cells [4] = conditions: WST-1, three days of exposure; cited from earlier work
DU145 cells [5] = conditions: WST-1, three days of exposure; cited from earlier work
LNCaP cells [6] = conditions: WST-1, three days of exposure; cited from earlier work
[7] = test system: MCF 10A non-neoplastic human mammary epithelial cell line; experiment: WST-1 cell proliferation assay, MCF 10A non-neoplastic cells; type: cell-based; conditions: Homo sapiens, MCF-10A, 72 h; WST-1, three days of exposure, mean ± SD, n = 3
Description: (§4) Silibinin and five potent derivatives (11, 29, 31, 37, and 40) were selected for further evaluation against the MCF 10A non-neoplastic human mammary epithelial cell line and PWR-1E non-neoplastic human prostate epithelial cells.
as §3

[8] = test system: PWR-1E non-neoplastic human prostate epithelial cells; experiment: WST-1 cell proliferation assay, PWR-1E non-neoplastic cells; type: cell-based; conditions: Homo sapiens, PWR-1E, 72 h; WST-1, three days of exposure, mean ± SD, n = 3
Description: as §4, §3

PC-3 cells [9] = experiment: Cell cycle analysis by flow cytometry (propidium iodide); type: cell-based, human; conditions: 20 µM, 16 h; controls 55.7% (11), 36.2% (29), 33.1% (31, 37, 40)
Description: Silibinin can arrest the rat (H-7 and I-8) and human prostate cancer cell (LNCaP) cycle at the G1 phase, and cause G1 and G2-M PC-3 prostate cancer cell cycle arrest.
PC-3 cells were plated in 24-well plates at a density of 200,000 per well in 400 µL of culture medium. […] […] Both attached and floating cells were collected in a centrifuge tube by centrifugation at an rcf value of 450 g for 5 min. After discarding the supernatant, the collected cells were re-suspended with 500 µL 80% cold ethanol to fix them for 30 min in 4 °C. The fixed cells could be stored at −20 °C for one week. After fixation, the ethanol was removed after centrifuging and the cells were washed with PBS. The cells were then re-suspend with 100 μL of […] ribonuclease and were cultured at 37 °C for 30 min to degrade all RNA. The cells were stained with 200 μL of 50 μg/mLpropidium iodide stock solution for 30 min at […], and then the fluorescence intensity of PI was detected in individual PC-3 cells using an Attune flow cytometer (Life Technologies, Carlsbad, CA, USA) within 0.5 to 1 h after staining.

[10] = test system: prostate cancer cell lines (LNCaP, PC-3 and DU145); experiment: WST-1 cell proliferation assay, three prostate cancer cell lines together; type: cell-based, human; conditions: range for the five optimal derivatives over PC-3, DU145, LNCaP; for IC50: Homo sapiens
Source text: As part of our ongoing silybin project, this study aims to introduce a basic nitrogen-containing group to 7-OH of 3,5,20-O-trimethyl-2,3-dehydrosilybin or 3-OH of 5,7,20-O-trimethyl-2,3-dehydrosilybin via an appropriate linker for in vitro evaluation as potential anti-prostate cancer agents. The synthetic approaches to 7-O-substituted-3,5,20-O-trimethyl-2,3-dehydrosilybins through a five-step procedure and to 3-O-substituted-5,7,20-O-trimethyl-2,3- dehydrosilybins via a four-step transformation have been developed. Thirty-two nitrogen-containing derivatives of silybin have been achieved through these synthetic methods for the evaluation of their antiproliferative activities towards both androgen-sensitive (LNCaP) and androgen-insensitive prostate cancer cell lines (PC-3 and DU145) using the WST-1 cell proliferation assay. […] All these five optimal derivatives can arrest the PC-3 cell cycle in the G0/G1 phase and promote PC-3 cell apoptosis.
as §3
In summary, six 7-O-aminoalkyl-3,5-20-O-trimethyl-2,3-dehydrosilybins and 26 3-O-aminoalkyl-5,7,20-O-trimethyl-2,3-dehydrosilybins have been successfully synthesized through a five-step and four-step sequence, respectively. The synthetic methods can be used for the general synthesis of 7-O-substituted-3,5,20-O-trimethyl-2,3-dehydrosilybins and 3-O-substituted-5,7,20-O- trimethyl-2,3-dehydrosilybins. The antiproliferative activities of the 32 derivatives against three prostate cancer cell lines have been evaluated using the WST-1 cell proliferation assay. […] All these five optimal derivatives can cause PC-3 cell accumulation in a G0/G1 phase by increasing the cell population in this phase at 16 h. Derivatives 11, 37, and 40 show a stronger ability than derivatives 29 and 31 in activating PC-3 cell apoptosis by inducing appreciable levels of apoptotic cell death at a 5 µM concentration after 16 h of treatment.

PC-3 cells [11] = experiment: F2N12S and SYTOX AADvanced double staining apoptosis assay; type: cell-based, human; conditions: for early phase apoptosis in PC-3 cells: 5 µM; for early phase apoptosis in PC-3 cells / early apoptotic cells / late apoptotic/necrotic cells: range over 11, 37, 40; for concentration at which the apoptotic cell population reached its maximum: PC-3, 16 h

Row | Compound | IC50 (Silibinin)/IC50(Derivative) PC-3 (PC-3 cells [1]) | IC50 (Silibinin)/IC50(Derivative) DU145 (DU145 cells [2]) | IC50 (Silibinin)/IC50(Derivative) LNCaP (LNCaP cells [3]) | IC50 (PC-3 cells [4]) [µM] | IC50 (DU145 cells [5]) [µM] | IC50 (LNCaP cells [6]) [µM] | IC50 (PC-3 cells [1]; Homo sapiens, PC-3, 72 h) [µM] | IC50 (DU145 cells [2]) [µM] | IC50 (LNCaP cells [3]; Homo sapiens, LNCaP, 72 h) [µM] | IC50 (PC-3 cells [1]) [µM] | IC50 (LNCaP cells [3]) [µM] | IC50 [7] [µM] | IC50 [8] [µM] | PC-3 cell population in G0/G1 phase (PC-3 cells [9]) [%] | IC50 [10] [µM] | fold improvement in potency compared to silibinin [10] | other results
1 | COc1cc(C2Oc3cc(-c4oc5cc(O)cc(O)c5c(=O)c4O)ccc3OC2CO)ccc1O (stereo not shown) [Compound 2, 2,3-dehydrosilybin] | 8 | 8 | 14 | 9.45 ± 0.56 | 11.5 ± 1.42 | 3.09 ± 1.3 |  |  |  |  |  |  |  |  |  |  | 
2 | CCOc1cc(O)c2c(=O)c(O)c(-c3ccc4c(c3)OC(c3ccc(O)c(OC)c3)C(CO)O4)oc2c1 (stereo not shown) [Compound 3, 7-O-ethyl-2,3-dehydrosilybin, reference compound] | 22 | 12 | 17 | 3.25 ± 0.31 | 7.59 ± 0.66 | 2.58 ± 0.07 |  |  |  |  |  |  |  |  |  |  | 
3 | CCCOc1c(-c2ccc3c(c2)OC(c2ccc(O)c(OC)c2)C(CO)O3)oc2cc(O)cc(O)c2c1=O (stereo not shown) [Compound 4, 3-O-propyl-2,3-dehydrosilybin, reference compound] | 42 | 8 | 21 | 1.71 ± 0.45 | 11 ± 0.68 | 2.07 ± 0.18 |  |  |  |  |  |  |  |  |  |  | 
4 | COc1ccc(C2Oc3cc(-c4oc5cc(OCCCBr)cc(OC)c5c(=O)c4OC)ccc3OC2CO)cc1OC (stereo not shown) [Compound 8, 7-O-(3′-bromo)propyl-3,5,20-O-trimethyl-2,3-dehydrosilybin] | 3 | 8 | 8 |  |  |  | 26.1 ± 3.58 | 11.5 ± 2.38 | 5.71 ± 2.13 |  |  |  |  |  |  |  | melting point: 115 to 116 °C
5 | CNCCCOc1cc(OC)c2c(=O)c(OC)c(-c3ccc4c(c3)OC(c3ccc(OC)c(OC)c3)C(CO)O4)oc2c1 (stereo not shown) [Compound 9, 7-O-(N-Methylaminopropyl)-3,5,20-O-trimethyl-2,3-dehydrosilybin] | 2 | 2 | 4 |  |  |  | 42.6 ± 6.61 | 39.6 ± 9.49 | 12.1 ± 1.81 |  |  |  |  |  |  |  | melting point: 125 to 127 °C
6 | CCCCN(CCCC)CCCCCOc1c(-c2ccc3c(c2)OC(c2ccc(OC)c(OC)c2)C(CO)O3)oc2cc(OC)cc(OC)c2c1=O (stereo not shown) [Compound 31] |  |  |  |  |  |  | ≤ 3 | 2.85 ± 0.23 | ≤ 3 | 2.84 ± 0.1 | 2.51 ± 0.31 | < 5 | < 5 | 35.9 | 1.4 to 3.06 | 17- to 52 fold | maximum apoptotic cell population (PC-3 cells [11]; 50 µM, 16 h): 95%; apoptotic cell death (PC-3 cells [11]; up to a 10 µM concentration, 16 h): less than 10%
7 | COc1cc(OC)c2c(=O)c(OCCCCCN3CCCCC3)c(-c3ccc4c(c3)OC(c3ccc(OC)c(OC)c3)C(CO)O4)oc2c1 (stereo not shown) [Compound 37] |  |  |  |  |  |  | ≤ 3 | 2.69 ± 0.03 | ≤ 3 | 2.71 ± 0.23 | 1.99 ± 0.23 | < 5 | < 5 | 34.6 | 1.4 to 3.06 | 17- to 52 fold | early phase apoptosis in PC-3 cells (PC-3 cells [11]; 16 h): 26–59%; early apoptotic cells (PC-3 cells [11]; 10 µM, 16 h): 56–76%; late apoptotic/necrotic cells (PC-3 cells [11]; 10 µM, 16 h): 6–40%; early apoptotic cells (PC-3 cells [11]; 20 µM, 16 h): 54–75%; late apoptotic/necrotic cells (PC-3 cells [11]; 20 µM, 16 h): 16–44%; concentration at which the apoptotic cell population reached its maximum (PC-3 cells [11]): 10 µM
8 | COc1cc(OC)c2c(=O)c(OCCCCCN3CCOCC3)c(-c3ccc4c(c3)OC(c3ccc(OC)c(OC)c3)C(CO)O4)oc2c1 (stereo not shown) [Compound 40] |  |  |  |  |  |  | ≤ 3 | 3.06 ± 0.13 | ≤ 3 | 2.72 ± 0.08 | 2.23 ± 0.18 | < 5 | < 5 | 43.4 | 1.4 to 3.06 | 17- to 52 fold | early phase apoptosis in PC-3 cells (PC-3 cells [11]; 16 h): 26–59%; early apoptotic cells (PC-3 cells [11]; 10 µM, 16 h): 56–76%; late apoptotic/necrotic cells (PC-3 cells [11]; 10 µM, 16 h): 6–40%; early apoptotic cells (PC-3 cells [11]; 20 µM, 16 h): 54–75%; late apoptotic/necrotic cells (PC-3 cells [11]; 20 µM, 16 h): 16–44%; concentration at which the apoptotic cell population reached its maximum (PC-3 cells [11]): 30 µM
